Assay results as given in patent US20230382926A1, “COMPOUNDS AND USES THEREOF” (The University of The West Indies, priority 2022, published 2023).

Test system: clinical isolate CR-K. pneumoniae 7225
Assay: Non-lethal mouse peritonitis infection model
Type: in vivo, Swiss albino mice
Protocol: For both lethal and non-lethal infection models involving Carbapenem resistant Klebsiella pneumoniae suitable strains, number of mice per treatment and bacterial infection dose were predetermined in preliminary experiments.
Each mouse (n=6 per group) received an intraperitoneal (i.p.) injection of 200 μl of bacterial suspension (1×10^4 CFU ml^−1).
Mice were then treated once daily for two subsequent days (i.e. 24 h and 48 h). Twenty-four-hours after the last dose, the mice were euthanized via cervical dislocation and their spleen and liver excised, homogenized in PBS and plated onto Hichrome™ Klebsiella selective media (HiMedia Laboratories, PA, USA). The plates were incubated at 35° C. for 24 h and bacterial counts were determined (CFU g^−1 organ).
Based on the significance of the SP-azaBIMs to restore the in vitro efficacy of antibiotics against high priority pathogenic bacteria, we examined if these compounds could provide proof of concept that they could be used to treat in vivo infections. To test this, we performed both non-lethal and lethal intraperitoneal infection models in Swiss Albino mice.
There was a significant reduction in the K. pneumoniae load in both the liver (FIG. 2a) and spleen (FIG. 2b) for the combination therapies compared to the respective antibiotic monotherapies. […] Colistin (Col) (10 mg kg^−1) was used as the positive control in this case. K. pneumoniae load in the liver (FIG. 2a) and spleen (FIG. 2b) was determined by selective plating on Hichrome™ Klebsiella selective media. Data bars represent the average (n=6 mice per treatment group)±standard error.

[1] = co-administered with Meropenem 10 mg kg^−1, SP-azaBIM 136 10 mg kg^−1 s.c. at 1, 24, 48 h, versus Meropenem only
[2] = combination with Ciprofloxacin 10 mg kg^−1, SP-azaBIM 136 10 mg kg^−1 s.c., compared to Ciprofloxacin only

## Oc1ccc(C(c2c[nH]c3cnccc23)c2c[nH]c3cnccc23)cc1 [SP-6azaBIM 136, 4-(bis(1H-pyrrolo[2,3-c]pyridin-3-yl)methyl)phenol]
SP-azaBIM 136 on its own, 10 mg kg^−1
  K. pneumoniae load in the organs: not able to reduce K. pneumoniae load in the organs
[1]
  Reduction of bacterial cells in the liver: 41 fold
  Reduction of bacterial cells in the spleen: 14 fold
[2]
  Reduction of bacterial cells in the liver: ~53 fold
  Reduction of bacterial cells in the spleen: ~12 fold
